Experimental data taken from publication PMC6594753, “Cystic fibrosis drug ivacaftor stimulates CFTR channels at picomolar concentrations” (eLife, 2019).
≈ marks a conversion by molar mass, not a printed value. Where “and” joins values, the source holds several entries; their conditions need not be identical. Equal values may be shown once. Read-outs that look alike come from different tables or passages of the source.

Tests used:
[1] = Determination of Vx-770 solubility profile (incremental solvent addition; saturated saline, 1-octanol extraction, spectrophotometry at 311 nm); assay type: physicochemical; conditions: for solubility at 24 h: aqueous saline (standard bath solution)
Text: We reasoned that some of the reported controversies on Vx-770 effects might be explained by the use of highly supersaturated concentrations of the drug in all published studies, and set out to determine its true solubility profile. Starting from crystalline Vx-770 (Selleck Chemicals), solubilities (S) of the drug in various organic solvents could be readily determined by adding incremental small volumes of solvent until all crystals had been dissolved (Table 1). We found Vx-770 extremely soluble in anhydrous dimethyl sulfoxide (DMSO) (S ~ 0.77 M), and reasonably soluble in 1-octanol (S ~ 3.9 mM) and ethanol (S ~ 3.1 mM). […] To generate an aqueous solution exactly saturated with Vx-770, a small aliquot of crystals was added to an aqueous saline (pH = 7.1) and, after vigorous shaking for 24 hr, visible crystals were removed by repeated filtering and microcrystals sedimented by centrifugation (Materials and methods). The resulting supernatant (our ‘1x saturated’ stock solution) was then used both for determination of Vx-770 solubility (Figure 1b–c), and for functional experiments (Figures 2–5). […] Repeated extraction of the aqueous stock with 1-octanol yielded a flat spectrum ([…], green spectrum, ‘2nd extract’), confirming that all Vx-770 had been efficiently extracted in the first round.
Crystalline Vx-770 (purity 99.58% by HPLC) was purchased from Selleck Chemicals (Houston, TX, USA). Solubilities (S) at 25°C in anhydrous dimethyl sulfoxide (DMSO) (S ~ 0.77 M), 1-octanol (S ~ 3.9 mM), ethanol (S ~ 3.1 mM), octane (S ~ 2.6 mM), and pentane (S ~ 18 μM) were determined by weighing out a small amount (1–2 mg) of crystals on an analytical balance (Kern ABJ), and adding incremental small volumes of solvent, followed by mixing, until all crystals had been dissolved.
To obtain an aqueous solution (pH = 7.1) exactly saturated with Vx-770 (our ‘1x saturated’ stock), a small aliquot of Vx-770 crystals (~0.1 mg) was added to 250 ml of our standard bath solution (in mM: 134 NMDG-Cl, 2 MgCl2, 5 HEPES, 0.5 EGTA, pH = 7.1 with NMDG), and the solution was shaken for 24 hr at 25°C at 200 RPM (New Brunswick Excella E24). Remaining, clearly visible, macrocrystals were removed by filtering the solution twice through an 0.22 μm pore size filter (Millipore Durapore Steritop + Stericup, Merck KGaA, Darmstadt, Germany). To sediment invisible microcrystals, the filtrate was centrifuged at 7200 RCF for 1 hr in 50 ml conical tubes, and the supernatant carefully removed, leaving the last ~1 ml behind. The resulting cleared filtrate was stored and used as a stock solution for all subsequent studies.
The concentration of Vx-770 in the 1x saturated stock was determined by spectrophotometry (NanoPhotometer P300, Implen GmbH). […] To obtain a calibration curve, Vx-770 (from a commercial 10 mM stock dissolved in DMSO, purchased from Selleck Chemicals) was diluted into 1-octanol (saturated with water) to final concentrations of 1, 2, 4, 8, and 16 μM. Absorption spectra were measured in a 1 ml quartz cuvette against 1-octanol (saturated with water) as a blank (Figure 1b, blue spectra). To extract Vx-770 from the 1x saturated aqueous stock, two 15 ml conical tubes, each containing 14 ml of the 1x aqueous stock plus 0.7 ml 1-octanol, were vortexed for 1 min, and then centrifuged at 7200 RCF for 30 min. Approximately 2 × 0.6 ml of the 1-octanol phase was recovered, pooled, and its absorption spectrum measured in a 1 ml quartz cuvette against 1-octanol (saturated with water) as a blank (Figure 1b, red spectrum). To extract the remaining aqueous phase for a second time, the remnants of the 1-octanol phase were carefully discarded from both conical tubes, and 12.5 ml of the remaining aqueous phase (removed by inserting the pipette tip well below the surface) was transferred into two clean conical tubes. The extraction was then repeated using 2 × 0.625 ml 1-octanol, from which 2x ~ 0.5 ml was recovered, pooled, and assayed for optical density (Figure 1b, green spectrum). […]

WT CFTR = conditions: cited from earlier work

For CC(C)(C)c1cc(C(C)(C)C)c(NC(=O)c2c[nH]c3ccccc3c2=O)cc1O [Vx-770, ivacaftor], the solubility ([1]; 1-octanol, 25 °C, organic solvent or mixture, thermodynamic from solid, 1-octanol, 25°C, read-out: S (solubility)) was 3900 µM (≈ 1530 µg/mL), the “aqueous solubility lower than reported / generally believed” value ([1]; 25°C) was ~ 200 fold and the “aqueous solubility Saq” value ([1]; 25°C, pH = 7.1, aqueous saline) was ~ 62 nM and ~ 60 nM. For the same compound, the solubility ([1]; anhydrous DMSO, 25 °C, organic solvent or mixture, thermodynamic from solid, DMSO, 25°C, read-out: S (solubility)) was 770000 µM (≈ 302000 µg/mL), the solubility at 24 h ([1]; 25 °C, pH 7.1, thermodynamic from solid, water (pH=7.1), aqueous saline, 25°C, read-out: S (solubility)) was 0.062 µM (≈ 0.0243 µg/mL) and the solubility at 24 h ([1]; pH 7.1, 25°C, over pH 7.1 and 7.4, read-out: aqueous solubility estimate) was 0.05 to 0.062 µM (≈ 0.0196 to 0.0243 µg/mL). The solubility at 24 h ([1]; pH 7.1, 25°C, pH = 7.1, aqueous saline, read-out: aqueous solubility Saq) was 0.06 µM (≈ 0.0235 µg/mL), the solubility ([1]; ethanol, 25 °C, organic solvent or mixture, thermodynamic from solid, ethanol, 25°C, read-out: S (solubility)) was 3100 µM (≈ 1220 µg/mL) and the pKa ([1]; inferred from solubility at pH 7.4 vs 7.1, read-out: strongest acidic pKa) was over 7.4. For the same compound, the solubility ([1]; octane, 25 °C, organic solvent or mixture, thermodynamic from solid, octane, 25°C, read-out: S (solubility)) was 2600 µM (≈ 1020 µg/mL), the solubility ([1]; octane, 25°C, read-out: S (solubility)) was about 2600 µM (≈ 1020 µg/mL) and the “aqueous solubility at 37°C compared to that at 25°C” value ([1]; pH = 7.1, higher at 37°C) was ~ 2 fold. The solubility ([1]; pentane, 25 °C, organic solvent or mixture, thermodynamic from solid, pentane, 25°C, read-out: S (solubility)) was 18 µM (≈ 7.06 µg/mL), the solubility ([1]; pentane, 25°C, read-out: S (solubility)) was about 18 µM (≈ 7.06 µg/mL) and the “maximal stimulation of WT CFTR channels” value (WT CFTR; lower end of reported range, ref Cui and McCarty, 2015) was ~ 1.1 fold. The “reversibility of CFTR channel stimulation in cell-free patches” value (WT CFTR; ref Jih and Hwang, 2013, Lin et al., 2016, Yeh et al., 2015, 2017, Wang et al., 2014, 2018) was “irreversible”, the EC50 (WT CFTR; ref Van Goor et al., 2014, Langron et al., 2018, read-out: previously reported K0.5 for stimulation of WT CFTR) was about 300 nM and the “maximal stimulation of WT CFTR channels” value (WT CFTR; upper end of reported range, ref Wang et al., 2018) was ~ 3 fold.
